Earlier results as cited in patent US10369185B2, “Methods and compositions for enhancement of ability to concentrate” (KYOWA HAKKO BIO CO., LTD., priority 2014, dated 2019).

Conditions: alanylglutamine compared to glutamine; cited from earlier work

NC(=O)CC[C@H](N)C(=O)O [glutamine, reference compound]
solubility in aqueous solutions: low-solubility
